Data as given in patent publication US11571454B2, “Anticancer peptides that synergistically enhance chemotherapeutic potency” (The Penn State Research Foundation, priority 2017, dated 2023).

Key:
[1] = system: OVCAR-3 cells; assay: Combinatorial (checkerboard) cytotoxicity, OVCAR-3; type: cell-based, human; settings: for Combined FIC Score, OVCAR-3: chemotherapeutic in combination with MAD1, FIC <1 additive, <0.5 synergistic; for synergy with MAD1, OVCAR-3: drug-refractory line, combination with MAD1
From the text: (§1) For combinatorial cytotoxicity experiments, 96 well plates were set up in a checkerboard fashion such that peptide decreased in 1:10 concentration dilutions in one direction and chemotherapeutic decreased in 1:10 concentration dilutions in the orthogonal direction. 2×treatments were combined prior to cell administration for a final 1×concentration to prevent individual treatment effects.

[2] = system: NCI/ADR-RES cells; assay: Combinatorial (checkerboard) cytotoxicity, NCI/ADR-RES; type: cell-based, human; settings: for Combined FIC Score, NCl/ADR-RES: chemotherapeutic in combination with MAD1, FIC <1 additive, <0.5 synergistic; for drug potency (IC50) in NCI/ADR-RES on co-treatment with MAD1: in the presence of 20 μM MAD1, compared with OVCAR-3; for synergy with MAD1, NCI/ADR-RES: multidrug resistant line, combination with MAD1
From the text: as §1

[3] = system: patient-derived tumor cell spheroids (EOC15, 17, 19); assay: Ex vivo 3D tumor spheroid culture; type: cell-based, human
Method: EOC patient-derived cells were cultured in 1:1 MCDB-105: M199 supplemented with 10% FBS and 1% penicillin-streptomycin. EOC patient-derived cells were provided by Dr. Katherine M. Aird under an Institutional Review Board-approved protocol. EOC patient-derived cells were collected from patient ascites fluid after paracentesis procedures. Cells were routinely tested for mycoplasma as previously described. […] Spheroid length and width was calculated using ImageJ. Spheroid volume was calculated using the following equation […] Statistical Methods […] IC50 values are reported as mean values±standard deviation. […] Pore size frequency distribution was completed by ImageJ FIJI on 4 independent cells and n=30 pores from SEM images. […] Individual UV-Vis and CD spectra, as well as fluorescent confocal and TEM micrographs, shown are representative plots from three individual experiments. CD data is with a variance in ellipticity of 0.2 millidegrees at each wavelength. Relative fluorescence data calculated from fluorescent confocal images represents the average of 10 independent measurements±standard deviation. For spheroid volume analysis, a Kruskal-Wallis test and Dunn's multiple comparisons test was performed using GraphPad Prism 8.

[4] = system: A549 (lung carcinoma) cells; assay: MTT cytotoxicity assay, A549; type: cell-based, human; settings: for IC50: 48 hours treatment, MTT, read-out: Cancerous (IC50, μM) A549
Method: (§2) All cells were cultured using standard culture conditions at 37° C., 5% CO2, and 95% humidity. A549 (CCL-185), OVCAR-3 (HTB-161), T24 (HTB-4), and NCI/ADR-RES were cultured in RPMI-1640 supplemented with 10% v/v fetal bovine serum (FBS), 2 mM L-glutamine (L-Gln), 10,000 units penicillin/mL, 10 mg/mL streptomycin, and 25 μg/mL amphotericin B. HUVEC (PCS-100-010) cells were cultured in Vascular Cell Basal Media (PCS-100-030) supplemented with an Endothelial Cell Growth Kit-VEGF (PCS-100-041) and 10 μg/mL gentamycin in culture flasks coated with 0.1% gelatin by incubating at 37° C. for 15 min. NL20 (CRL-2503) cells were cultured in Ham's F12 supplemented with 1.5 g/L sodium bicarbonate, 2.7 g/L glucose, 2.0 mM L-glutamine, 0.1 mM nonessential amino acids, 0.005 mg/ml insulin, 10 ng/ml epidermal growth factor, 0.001 mg/ml transferrin, 500 ng/ml hydrocortisone and 4% fetal bovine serum, as advised by American Type Culture Collection (ATCC).
(§3) Viability was calculated by comparing to an untreated control.
(§4) All experiments were performed with n>6.
(§5) Cell viability experiments were completed n>6 in two independent experiments and analyzed using GraphPad Prism 8 to fit curves and calculate IC50 values using inhibitor vs. normalized response non-linear regression model. IC50 values are reported as mean values±standard deviation. […] Pore size frequency distribution was completed by ImageJ FIJI on 4 independent cells and n=30 pores from SEM images. UV-Vis OD600 and CD spectra are means of 5 and 3 replicates, respectively and reported as mean±standard deviation. Individual UV-Vis and CD spectra, as well as fluorescent confocal and TEM micrographs, shown are representative plots from three individual experiments. CD data is with a variance in ellipticity of 0.2 millidegrees at each wavelength. Relative fluorescence data calculated from fluorescent confocal images represents the average of 10 independent measurements±standard deviation. For spheroid volume analysis, a Kruskal-Wallis test and Dunn's multiple comparisons test was performed using GraphPad Prism 8.

[5] = system: NCI/ADR-RES (drug-resistant ovarian carcinoma) cells; assay: MTT cytotoxicity assay, NCI/ADR-RES; type: cell-based, human; settings: for IC50: 48 hours treatment, MTT, read-out: Cancerous (IC50, μM) NCl/ADR-RES
Method: as §2, §3, §4, §5

[6] = Liposome disruption (OD600), cancer membrane model; settings: OD600 and visual flocculates
Method: (§6) Liposomes were prepared by extrusion techniques according to previous methods. Briefly, all liposomes were prepared in 2×concentration (5 mM). Healthy and cancer liposomal mimicking membranes were prepared with 72:23:[…] phosphatidylcholine (POPC):phosphatidylethanolamine (DOPE):phosphatidylserine (POPS) lipids, respectively. The lipids dissolved in chloroform were mixed in proper molar proportions before being evaporated under a stream of argon. The lipid film was then dried completely by lyophilization overnight. […] The extruded liposomes were then dialyzed in 3500 MWCO dialysis cassettes against water. Parallel optical density experiments were conducted measuring the absorbance at 600 nm (OD600) to track the kinetics and specificity of membrane disruption. Measurements were taken every 30 seconds for the first 10 min., followed by measurements every minute until 15 min.

[7] = Liposome disruption (OD600), normal membrane model
Method: as §6

[8] = system: polymicrobial panel (six bacterial lines); assay: Antimicrobial activity against polymicrobial panel; type: cell-based; settings: six bacterial lines
[9] = system: non-cancerous cell lines HUVEC and NL20; assay: MTT cytotoxicity, non-cancerous control cell lines; type: cell-based, human
Method: as §2, §3, §4

[10] = system: OVCAR-3 ovarian carcinoma cells; settings: for IC50: 48 h
[11] = system: T24 (urinary bladder transitional cell carcinoma) cells; settings: 48 h
[12] = system: human umbilical vein endothelial cells (HUVEC); settings: 48 h
[13] = system: human lung epithelium (NL20); settings: 48 h
[14] = system: B. subtilis (168); settings: 24 hours, Gram Positive
[15] = system: MS S. aureus; settings: 24 hours, Gram Positive
[16] = system: MR S. aureus; settings: 24 hours, Gram Positive
[17] = system: P. aeruginosa; settings: 24 hours, Gram Negative
[18] = system: E. coli; settings: 24 hours, Gram Negative
[19] = system: M. tuberculosis; settings: 24 hours, Mycobacteria
[20] = system: panel of human cancer cell lines (A549, OVCAR-3, NCI/ADR-RES, T24)
[21] = system: T24 (urinary bladder transitional cell carcinoma) cells; assay: MTT cytotoxicity assay, T24; settings: IC50-HUVEC/IC50-T24

| Molecule | Combined FIC Score, OVCAR-3 [1] | synergy with MAD1, OVCAR-3 [1] | Combined FIC Score, NCl/ADR-RES [2] | drug potency (IC50) in NCI/ADR-RES on co-treatment with MAD1 [2] | synergy with MAD1, NCI/ADR-RES [2] | IC50 [4] [µM] | IC50 [5] [µM] | antimicrobial activity against polymicrobial panel [8] | IC50 [10] [µM] | IC50 [11] [µM] | IC50 [12] [µM] | IC50 [13] [µM] | MIC (μM) B. subtilis (168) [14] [µM] | MIC (μM) MS S. aureus [15] [µM] | MIC (μM) MR S. aureus [16] [µM] | MIC (μM) P. aeruginosa [17] [µM] | MIC (μM) E. coli [18] [µM] | MIC (μM) M. tuberculosis [19] [µM] | also measured |
| --- | --- | --- | --- | --- | --- | --- | --- | --- | --- | --- | --- | --- | --- | --- | --- | --- | --- | --- | --- |
| N.N.[Cl][Pt][Cl] [Cis, Cisplatin] | 0.31 | potently synergizes | 0.27 | restored the potency | potently synergizes | – | – | – | – | – | – | – | – | – | – | – | – | – | spheroid size, combination ([3]; 2 μM cisplatin combined with 4 μM MAD1, 48 hours): potent and synergistic anticancer effects; spheroid size, single agent ([3]; 2 μM cisplatin or 4 μM MAD1 alone, 48 hours): minimal reduction in size |
| CC(=O)O[C@H]1C(=O)[C@@]2(C)[C@H]([C@H](OC(=O)c3ccccc3)[C@]3(O)C[C@H](OC(=O)[C@H](O)[C@@H](NC(=O)c4ccccc4)c4ccccc4)C(C)=C1C3(C)C)[C@]1(OC(C)=O)CO[C@@H]1C[C@@H]2O [Ptx, Paclitaxel] | – | – | 0.27 | – | potently synergizes | – | – | – | – | – | – | – | – | – | – | – | – | – | – |
| COc1cccc2c1C(=O)c1c(O)c3c(c(O)c1C2=O)C[C@@](O)(C(=O)CO)C[C@@H]3O[C@H]1C[C@H](N)[C@H](O)[C@H](C)O1 [Dox, Doxorubicin] | 0.33 | potently synergizes | 0.37 | restored the potency | potently synergizes | – | – | – | – | – | – | – | – | – | – | – | – | – | – |
| H-LWKRWVGVWRKWL-NH2 [DAP1] | – | – | – | – | – | 11.9 | 14 | bactericidal activity | 8.6 | 15.3 | 19.5 | 19 | <0.6 | 7 | 5 | 20 | 10 | 20 | Therapeutic Index A549 ([4]; IC50-HUVEC/IC50-A549): 1.6; Therapeutic Index NCl/ADR-RES ([5]; IC50-HUVEC/IC50-NCI/ADR-RES): 1.4; disruption/lysis of cancer membrane liposomes [6]: does not completely lyse; disruption/interaction with normal (healthy) membrane liposomes [7]: little interaction affinity; toxicity towards non-cancerous control cell lines [9]: nearly equal toxicity; Therapeutic Index OVCAR-3 ([10]; IC50-HUVEC/IC50-OVCAR-3): 2.3; IC50 [20]: 8.6 to 15.3 µM; therapeutic indices across cell lines ([20]; relative to HUVEC controls): ≤ 2.3; Therapeutic Index T24 [21]: 1.3 |
| H-RWGKWFKKNSHLS-NH2 [DAP2] | – | – | – | – | – | > 100 | > 100 | inactive | > 100 | > 100 | > 100 | > 100 | >80 | >80 | >80 | >80 | >80 | >80 | Cancerous (IC50, μM) OVCAR-3 ([10]; 48 hours treatment, MTT): did not achieve an IC50; activity towards all four tumor cell lines tested ([20]; result in words): inactive |
